In patent publication US20250011316A1, “PEROXIREDOXIN 3 INHIBITORS AND METHODS OF USE FOR TREATING CANCER” (Wake Forest University Health Sciences, priority 2022, published 2025):
Values after ≈ are worked out from the molar mass of the structure shown.

Tests used:
[1] = tested on: human SK—OV-3 ovarian cancer cells; experiment: Cellular Activity Assay (cytotoxicity, crystal violet); assay type: cell-based; conditions: SK—OV-3 cells, treated for 48 hr, 0.1-100 μM, crystal violet absorbance at 540 nm
Excerpt: (§1) To test the activity of compounds, two complimentary assays were used as described below. The Biochemical PRX3 Inhibition Assay tests the ability of each compound to crosslink PRX3 in a simple, in vitro system. In the Cellular Activity Assay, we are testing the ability of compounds to kill SK—OV-3 ovarian cancer cells.
The Cellular Activity Assay measures the EC50 of each compound in human SK—OV-3 ovarian cancer cells TS to be taken into the cell, transported to the mitochondria, and crosslink PRX3.
The cytotoxicity of compounds was measured as described in Nelson et al. (2021) Antioxidants (Basel) 10, 150; Cunniff et al. (2015) PloS one 10, e0127310; and Newick et al. (2012) PloS one 7, e39404. SK—OV-3 is an adherent, epithelial, adenocarcinoma cell line obtained from ATCC (ref #: HTB-77). SK—OV-3 cells are resistant to the commonly used chemotherapeutics, cis-platinum and doxorubicin. For this […], SK—OV-3 cells were plated in a 96-well plate. After 24 h recovery, the cells were treated for 48 hr with multiple concentrations of each compound ranging from 0.1-100 μM.
Cells were washed with PBS to remove dead cells and the remaining live cells were fixed with 3.0% formaldehyde and stained with 0.1% crystal violet. The amount of crystal violet was determined by reading the absorbance at 540 nm (crystal violet dye dissolved in 100% methanol) using a plate reader. The signal for crystal violet dye is proportional to the biomass of remaining live cells. GraphPad Prism9 software was used to calculate the effective inhibitory concentration (EC50) of test compounds. Results for each compound, are normalized to the amount of cells in control wells treated with the equivalent concentration of DMSO (negative control). TS or Compound 4 were included in each set of assays as a positive control.

purified human PRX3 = biological target: T1, purified human PRX3 (Homo sapiens, UniProt P30048); experiment: Biochemical PRX3 Inhibition Assay (non-reducible crosslink by SDS PAGE + single adduct by MALDI-TOF MS); conditions: 100 μM PRX3 with TRX2/thioredoxin reductase/NADPH system and hydrogen peroxide, 1-2 hr at 37° C.
T1 construct: made in house
T1 sequence (P30048 62-256): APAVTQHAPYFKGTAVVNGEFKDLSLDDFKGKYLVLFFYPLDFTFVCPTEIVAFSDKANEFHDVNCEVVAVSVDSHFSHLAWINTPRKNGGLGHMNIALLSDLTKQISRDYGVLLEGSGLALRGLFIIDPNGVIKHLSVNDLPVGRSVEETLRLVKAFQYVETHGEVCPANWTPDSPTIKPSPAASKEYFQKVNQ
Excerpt: The compounds described herein generally react with two essential cysteine residues in the mitochondrial peroxidase PRX3, leading to the formation of a non-reducible, covalent crosslink of two PRX3 monomers. This crosslink inactivates PRX3. Increased PRX3 crosslink is associated with mitochondrial stress, increased cell death in cell models of malignant mesothelioma and is associated with decreased tumor volume in a mouse model. Cunniff et al. (2015) PloS one 10, e0127310.
as §1
This assay tests the ability of each compound to form a covalent adduct with PRX3. The assay is performed as described in Nelson et al. (2021) Antioxidants (Basel) 10, 150; and Cunniff et al. (2015) PloS one 10, e0127310, and follows the appearance of non-reducible PRX3 crosslinks by SDS PAGE gel electrophoresis and follows the appearance of single PRX3 adducts by mass spectrometry. For this assay, purified human PRX3, hydrogen peroxide (the PRX3 substrate) and all the components required to enable PRX3 to catalytically cycle (thioredoxin-thioredoxin reductase-NAPDH system) are included (details below).
The biochemical PRX3 Inhibition assay contains 100 μM PRX3, 50 μM human TRX2, 0.5 μM mouse thioredoxin reductase, and a NADPH regenerating system composed of 3.2 mM glucose 6-phosphate, 3.2 U/ml glucose 6-phosphate dehydrogenase and 0.4 mM NADPH. Samples are incubated for 1-2 hr at 37° C. with either 0.2 mM TS (positive control), compounds or an equivalent volume of DMSO (negative control). During this incubation, hydrogen peroxide is added to induce turnover of PRX3. Reactions are stopped by the addition of a buffer containing 100 mM dithiothreitol (to break disulfide bonds) and SDS (detergent to denature proteins). NADPH, Glucose 6-Phosphate, and glucose 6-phosphate dehydrogenase were purchased from Sigma Aldrich. PRX3, thioredoxin, and thioredoxin reductase were all purified to >98% purity in the Lowther laboratory according to protocols referenced in Nelson et al. (2021) Antioxidants (Basel) 10, 150; and Cunniff et al. (2015) PloS one 10, e0127310.
To measure the amount of PRX3 crosslink, proteins in the reaction were separated by SDS-polyacrylamide gel electrophoresis and stained for total protein using GelCode Blue (Life Technologies). The amount of unmodified PRX3 and TS-PRX3 crosslink was measured by densiometric analysis of the signal for the PRX3 band running at the MW of a PRX3 crosslink (˜46 kDa) compared to the PRX3 signal at the MW of the un-modified PRX3 (−23 kD).
To measure covalent adduct formation on a single PRX3 monomer, each reaction was exchanged into a mass spectrometry compatible buffer containing 40 mM ammonium citrate, pH 8.3 made in HPLC water. Sample was mixed 1:1 with a matrix solution containing 30 mg/mL sinapinic acid in 70% (vol/vol) acetonitrile, 0.2% formic acid and spotted to onto the sample plate. PRX3 mass was measured by MALDI-TOF MS analysis on a Bruker Daltonics MALDI-TOF MS spectrometer. Spectra were analyzed in FLEXAnalysis Software. The intensity of the reduced PRX3 peak (SH) and intensity of the analog adduct peak was determined and corrected for background signal at the adduct peak in the DMSO control. The fraction of single analog adduct in the monomer peak was determined by dividing the intensity of the adduct peak by the summed intensity of the SH and adduct peaks.

Solubility Assay (HPLC) = assay type: physicochemical; conditions: HEPES/NaCl buffer, aqueous with cosolvent or surfactant or cyclodextrin, kinetic from dmso stock; 20 mM HEPES, 100 mM NaCl, pH 7.5, 18-24 hours at ambient temperature; read-out: Solubility
Procedure: A 20 mM stock solution was made for each compound in DMSO. To measure solubility, 0.03-0.05 mL of the stock was added to 0.27 mL 20 mM HEPES, 100 mM NaCl, pH 7.5. The solution was mixed and rotated 18-24 hours at ambient temperature. The next day, solutions were centrifuged for 10 min at 20,000×g at […] to remove insoluble, solid material. Next, 100 μL of the supernatant containing the soluble compound was added to 900 μL DMSO and High Performance Liquid Chromatography was performed as described in Table 1 and either HIPLC gradient 1 (Table 2) or HIPLC gradient 2 (Table 3). For each analog, a 200 μM standard and a 20 μM standard were prepared and run in parallel (standards were dissolved completely in […]). The amount ofLcompound in the experimental sample was calculated by comparing the area under the curve for compound peak to the area for the closest standard and correcting for dilution.

[2] = tested on: Enterococcus hirae (ATCC #10541); experiment: Antimicrobial Activity Assay (MIC / growth inhibition); assay type: cell-based; conditions: ATCC10541; Enterococcus hirae; analogs tested at 20 μM final concentration
Procedure: The overnight growth was then diluted into growth media to make a single solution of E. hirae with a final optical density at 600 nm=0.02 AU. A 20 mM stock solution of Thiostrepton in DMSO was made and used to make multiple dilutions of TS in DMSO. Each TS dilution (0.1 mL) was then added to a test tube containing 10 mL of the diluted E. hirae and grown at 37° C. overnight while shaking at 180 rpm. The next morning, each tube was visually inspected to determine if the cells grew. Final concentrations tested were 0.120, 0.090, 0.075, 0.060, 0.045, 0.030, and 0.015 μM TS. […] Three replicates were made on three separate days (n=9). […] For TS analogs, the dilute E. hirae was treated with 20 μM final concentration of each analog (three replicates each). […] DMSO was used as a positive control (complete cell growth) and 20 μM thiostrepton was used as a negative control.

Compound | EC50 ([1]; Homo sapiens) [µM] | PRX3 Inhibition (Crosslink + Mono-adduct) (purified human PRX3) | solubility (Solubility Assay (HPLC)) [µM] | MIC [2] [µM] | EC50 [1] [µM]
C=C(NC(=O)c1csc(N2CCN(C(=O)OC(C)(C)C)CC2)n1)C(=O)NC(=C)C(=O)OC [Compound 18, Tert-butyl 4-(4-((3-((3-methoxy-3-oxoprop-1-en-2-yl)amino)-3-oxoprop-1-en-2-yl)carbamoyl)thiazol-2-yl)piperazine-1-carboxylate] | 25 to 100 | + (5-50%) | 100 to 1000 (≈ 46.6 to 466 µg/mL) | > 20 | –
C=C(NC(=O)c1csc(N2CCC[C@H](NC(=O)OC(C)(C)C)C2)n1)C(=O)NC(=C)C(=O)OC [Compound 20, Methyl (S)-2-(2-(2-(3-((tert-butoxycarbonyl)amino)piperidin-1-yl)thiazole-4-carboxamido)acrylamido)acrylate] | 1 to 10 | +++ (>90%) | < 100 | > 20 | –
C=C(NC(=O)c1csc(-c2ccc(CNC(=O)CCCCCNC(=O)OC(C)(C)C)cc2)n1)C(=O)NC(=C)C(=O)OC [Compound 16, Methyl 2-(2-(2-(4-((6-((tert-butoxycarbonyl)amino)hexanamido)methyl)phenyl)thiazole-4-carboxamido)acrylamido)acrylate] | – | +++ (>90%) | < 100 | > 20 | 10 to 25
C=C(NC(=O)c1csc(-c2ccc(NC(=O)CCCCCBr)cc2)n1)C(=O)NC(=C)C(=O)OC [Compound 4, Methyl 2-(2-(2-(4-(6-bromohexanamido)phenyl)thiazole-4-carboxamido)acrylamido)acrylate] | 1 to 10 | ++ (50-90%) | < 100 | > 20 | –
C=C(NC(=O)c1csc(N2CCC[C@@H](NC(=O)OCCOC)C2)n1)C(=O)NC(=C)C(=O)OC [Compound 31, Methyl (R)-2-(2-(2-(3-(((2-methoxyethoxy)carbonyl)amino)piperidin-1-yl)thiazole-4-carboxamido)acrylamido)acrylate] | 25 to 100 | + (5-50%) | > 1000 | > 20 | –
C=C(NC(=O)c1csc(-c2ccc(NC(=O)OC(C)(C)C)cc2)n1)C(=O)NC(=C)C(=O)OC [Compound 5, Methyl 2-(2-(2-(4-((tert-butoxycarbonyl)amino)phenyl)thiazole-4-carboxamido)acrylamido)acrylate] | 1 to 10 | +++ (>90%) | < 100 | > 20 | –
C=C(NC(=O)c1csc(N2CCOCC2)n1)C(=O)NC(=C)C(=O)OC [Compound 17, Methyl 2-(2-(2-morpholinothiazole-4-carboxamido)acrylamido)acrylate] | 10 to 25 | +++ (>90%) | 100 to 1000 (≈ 36.6 to 366 µg/mL) | > 20 | –
C=C(NC(=O)c1csc(N2CCC(NC(=O)CCCCCN=[N+]=[N-])CC2)n1)C(=O)NC(=C)C(=O)OC [Compound 19, Methyl 2-(2-(2-(4-(6-azidohexanamido)piperidin-1-yl)thiazole-4-carboxamido)acrylamido)acrylate] | 1 to 10 | +++ (>90%) | < 100 | > 20 | –
C=C(NC(=O)c1csc(-c2ccc(COC(=O)NCCCOC)cc2)n1)C(=O)NC(=C)C(=O)OC [Compound 42, Methyl 2-(2-(2-(4-((((3-methoxypropyl)carbamoyl)oxy)methyl)phenyl)thiazole-4-carboxamido)acrylamido)acrylate] | 1 to 10 | +++ (>90%) | < 100 | – | –
C=C(NC(=O)c1csc(-c2ccc(CNC(=O)OCCCCCCN=[N+]=[N-])cc2)n1)C(=O)NC(=C)C(=O)OC [Compound 50, Methyl 2-(2-(2-(4-(((((6-azidohexyl)oxy)carbonyl)amino)methyl)phenyl)thiazole-4-carboxamido)acrylamido)acrylate] | 1 to 10 | + (5-50%) | < 100 | – | –
C=C(NC(=O)c1csc(N2CCC(CNC(=O)CCCCCCl)CC2)n1)C(=O)NC(=C)C(=O)OC [Compound 40, Methyl 2-(2-(2-(4-((6-chlorohexanamido)methyl)piperidin-1-yl)thiazole-4-carboxamido)acrylamido)acrylate] | 10 to 25 | +++ (>90%) | 100 to 1000 (≈ 52.6 to 526 µg/mL) | – | –
